Measured values taken from PubChem BioAssay (NCI).
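Test compounds were applied to cells in 96-well plates for 48 hours at 5 doses. GI50 marks 50% less growth. The concentration for full growth arrest is given as TGI.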

Tests used:
Assay in all cases: NCI anticancer screen, dose series, 48 h
SW-620 colon = system: SW-620 colon
A498 renal = system: A498 renal
COLO 205 colon = system: COLO 205 colon
HCC-2998 colon = system: HCC-2998 colon
NCI/ADR-RES ovarian = system: NCI/ADR-RES ovarian
OVCAR-3 ovarian = system: OVCAR-3 ovarian
HT29 colon = system: HT29 colon
SNB-19 CNS = system: SNB-19 CNS
NCI-H522 lung = system: NCI-H522 lung
SK-MEL-2 melanoma = system: SK-MEL-2 melanoma
MDA-MB-231 breast = system: MDA-MB-231 breast
HCT-15 colon = system: HCT-15 colon
KM12 colon = system: KM12 colon
M14 melanoma = system: M14 melanoma
NCI-H226 lung = system: NCI-H226 lung
OVCAR-8 ovarian = system: OVCAR-8 ovarian
UACC-62 melanoma = system: UACC-62 melanoma
SR leukemia = system: SR leukemia
MOLT-4 leukemia = system: MOLT-4 leukemia
HOP-62 NSCLC = system: HOP-62 NSCLC
IGROV1 ovarian = system: IGROV1 ovarian
HOP-92 NSCLC = system: HOP-92 NSCLC
786-0 renal = system: 786-0 renal
EKVX NSCLC = system: EKVX NSCLC
RPMI-8226 leukemia = system: RPMI-8226 leukemia
OVCAR-4 ovarian = system: OVCAR-4 ovarian
CCRF-CEM leukemia = system: CCRF-CEM leukemia
MCF7 breast = system: MCF7 breast
SF-295 CNS = system: SF-295 CNS
UACC-257 melanoma = system: UACC-257 melanoma
PC-3 prostate = system: PC-3 prostate
K-562 leukemia = system: K-562 leukemia
ACHN renal = system: ACHN renal
HCT-116 colon = system: HCT-116 colon
HL-60(TB) leukemia = system: HL-60(TB) leukemia
BT-549 breast = system: BT-549 breast
LOX IMVI melanoma = system: LOX IMVI melanoma
U251 CNS = system: U251 CNS
NCI-H23 lung = system: NCI-H23 lung
SK-MEL-28 melanoma = system: SK-MEL-28 melanoma
CAKI-1 renal = system: CAKI-1 renal
MALME-3M melanoma = system: MALME-3M melanoma
NCI-H460 lung = system: NCI-H460 lung
MDA-MB-435 = system: MDA-MB-435
DU-145 prostate = system: DU-145 prostate
HS 578T breast = system: HS 578T breast
OVCAR-5 ovarian = system: OVCAR-5 ovarian
SF-539 CNS = system: SF-539 CNS
SK-OV-3 ovarian = system: SK-OV-3 ovarian
T-47D breast = system: T-47D breast
SF-268 CNS = system: SF-268 CNS
SK-MEL-5 melanoma = system: SK-MEL-5 melanoma
SN12C renal = system: SN12C renal
RXF 393 renal = system: RXF 393 renal
TK-10 renal = system: TK-10 renal
UO-31 renal = system: UO-31 renal
SNB-75 CNS = system: SNB-75 CNS
A549 NSCLC = system: A549 NSCLC

COc1ccc(-c2cc(-c3ccc(Cl)cc3)nc(SCCCCCCC(=O)NO)n2)cc1
GI50 (SW-620 colon): 1430 nM | TGI (SW-620 colon): 10200 nM | GI50 (A498 renal): 1280 nM | TGI (A498 renal): 3800 nM | GI50 (COLO 205 colon): 1880 nM | TGI (COLO 205 colon): 11500 nM | GI50 (HCC-2998 colon): 2010 nM | TGI (HCC-2998 colon): 8370 nM | GI50 (NCI/ADR-RES ovarian): 876 nM | TGI (NCI/ADR-RES ovarian): 3830 nM | GI50 (OVCAR-3 ovarian): 1490 nM | TGI (OVCAR-3 ovarian): 6850 nM | GI50 (HT29 colon): 1710 nM | TGI (HT29 colon): 16600 nM | GI50 (SNB-19 CNS): 1670 nM | TGI (SNB-19 CNS): 23600 nM | GI50 (NCI-H522 lung): 1200 nM | TGI (NCI-H522 lung): 7860 nM | GI50 (SK-MEL-2 melanoma): 5730 nM | TGI (SK-MEL-2 melanoma): > 50000 nM | GI50 (MDA-MB-231 breast): 1740 nM | TGI (MDA-MB-231 breast): 8890 nM | GI50 (HCT-15 colon): 1460 nM | TGI (HCT-15 colon): 7720 nM | GI50 (KM12 colon): 2200 nM | TGI (KM12 colon): 13100 nM | GI50 (M14 melanoma): 1260 nM | TGI (M14 melanoma): 4740 nM | GI50 (NCI-H226 lung): 1900 nM | TGI (NCI-H226 lung): 23900 nM | GI50 (OVCAR-8 ovarian): 1530 nM | TGI (OVCAR-8 ovarian): > 50000 nM | GI50 (UACC-62 melanoma): 1130 nM | TGI (UACC-62 melanoma): 3510 nM | GI50 (SR leukemia): 590 nM | TGI (SR leukemia): 3660 nM | GI50 (MOLT-4 leukemia): 790 nM | TGI (MOLT-4 leukemia): 2930 nM | GI50 (HOP-62 NSCLC): 1660 nM | TGI (HOP-62 NSCLC): 15000 nM | GI50 (IGROV1 ovarian): 1410 nM | TGI (IGROV1 ovarian): 12500 nM | GI50 (HOP-92 NSCLC): 1170 nM | TGI (HOP-92 NSCLC): 3670 nM | GI50 (786-0 renal): 1160 nM | TGI (786-0 renal): 3260 nM | GI50 (EKVX NSCLC): 2610 nM | TGI (EKVX NSCLC): 22300 nM | GI50 (RPMI-8226 leukemia): 1120 nM | TGI (RPMI-8226 leukemia): > 50000 nM | GI50 (OVCAR-4 ovarian): 2050 nM | TGI (OVCAR-4 ovarian): 43100 nM | GI50 (CCRF-CEM leukemia): 861 nM | TGI (CCRF-CEM leukemia): 14400 nM | GI50 (MCF7 breast): 1730 nM | TGI (MCF7 breast): > 50000 nM | GI50 (SF-295 CNS): 1220 nM | TGI (SF-295 CNS): 3010 nM | GI50 (UACC-257 melanoma): 1880 nM | TGI (UACC-257 melanoma): > 50000 nM | GI50 (PC-3 prostate): 1690 nM | TGI (PC-3 prostate): 12700 nM | GI50 (K-562 leukemia): 1720 nM | TGI (K-562 leukemia): 8860 nM | GI50 (ACHN renal): 1110 nM | TGI (ACHN renal): 2670 nM | GI50 (HCT-116 colon): 1350 nM | TGI (HCT-116 colon): 7160 nM | GI50 (HL-60(TB) leukemia): 1190 nM | TGI (HL-60(TB) leukemia): 2800 nM | GI50 (BT-549 breast): 2160 nM | TGI (BT-549 breast): 14000 nM | GI50 (LOX IMVI melanoma): 1220 nM | TGI (LOX IMVI melanoma): 3050 nM | GI50 (U251 CNS): 1370 nM | TGI (U251 CNS): 5900 nM | GI50 (NCI-H23 lung): 1560 nM | TGI (NCI-H23 lung): 7810 nM | GI50 (SK-MEL-28 melanoma): 2430 nM | TGI (SK-MEL-28 melanoma): 11700 nM | GI50 (CAKI-1 renal): 1320 nM | TGI (CAKI-1 renal): 7470 nM | GI50 (MALME-3M melanoma): 1140 nM | TGI (MALME-3M melanoma): 5500 nM | GI50 (NCI-H460 lung): 1290 nM | TGI (NCI-H460 lung): 8900 nM | GI50 (MDA-MB-435): 2120 nM | TGI (MDA-MB-435): 11000 nM | GI50 (DU-145 prostate): 1760 nM | TGI (DU-145 prostate): 15400 nM | GI50 (HS 578T breast): 1810 nM | TGI (HS 578T breast): > 50000 nM | GI50 (OVCAR-5 ovarian): 1660 nM | TGI (OVCAR-5 ovarian): 12500 nM | GI50 (SF-539 CNS): 1630 nM | TGI (SF-539 CNS): 6440 nM | GI50 (SK-OV-3 ovarian): 1620 nM | TGI (SK-OV-3 ovarian): 8540 nM | GI50 (T-47D breast): 1420 nM | TGI (T-47D breast): > 50000 nM | GI50 (SF-268 CNS): 1790 nM | TGI (SF-268 CNS): 6540 nM | GI50 (SK-MEL-5 melanoma): 1140 nM | TGI (SK-MEL-5 melanoma): 2520 nM | GI50 (SN12C renal): 1740 nM | TGI (SN12C renal): 8850 nM | GI50 (RXF 393 renal): 1270 nM | TGI (RXF 393 renal): 3690 nM | GI50 (TK-10 renal): 2120 nM | TGI (TK-10 renal): > 50000 nM | GI50 (UO-31 renal): 758 nM | TGI (UO-31 renal): 3050 nM | GI50 (SNB-75 CNS): 1360 nM | TGI (SNB-75 CNS): 23800 nM | GI50 (A549 NSCLC): 1620 nM | TGI (A549 NSCLC): 10700 nM
